In patent US20110224226A1, “COMPOSITIONS AND METHODS FOR INCREASING BLOOD PLATELET LEVELS IN HUMANS” (AKARX, Inc., priority 2006, published 2011):
Like-named read-outs stand apart in the source and are kept apart here.

How the values were obtained:
[1] = test system: human cord blood (CB) CD34^+ cells; test: differentiation of human cord blood CD34+ cells to megakaryocytes; assay type: cell-based; settings: concentration-dependent; maximum effect similar to that of rhTPO
[2] = test system: human hematopoietic progenitor cells; test: differentiation of hematopoietic progenitor cells other than megakaryocytic lineage; assay type: cell-based
[3] = in-vitro plasma protein binding, mice; assay type: in vitro ADME; settings: mouse, 0.05 to 50 μg/mL
Method: (§1) The in-vitro plasma protein binding of the drug of Formula I was independent of concentration over the concentration range of 0.05 to 50 μg/mL and was 87.2-89.1% in mice; 87.6-89.2% in rats; 88.3-92.0% in rabbits; […] in dogs; 97.0-97.6% in monkeys; and 96.3-96.6% in humans.

[4] = in-vitro plasma protein binding, rabbits; assay type: in vitro ADME; settings: rabbit, 0.05 to 50 μg/mL
Method: as §1

[5] = in-vitro plasma protein binding, monkeys; assay type: in vitro ADME; settings: monkey, 0.05 to 50 μg/mL
Method: as §1

liver microsomal enzymes [6] = test: metabolism by mouse liver microsomal enzymes; assay type: in vitro ADME
liver microsomal enzymes [7] = test: metabolism by dog liver microsomal enzymes; assay type: in vitro ADME
liver microsomal enzymes [8] = test: metabolism by human liver microsomal enzymes; assay type: in vitro ADME
CYP1A2 = target: T1, CYP1A2 (Homo sapiens, UniProt P05177); test: inhibition of human liver cytochrome P450 CYP1A2; assay type: in vitro ADME; settings: human liver cytochrome P450 isoenzyme
T1 sequence (P05177 1-516): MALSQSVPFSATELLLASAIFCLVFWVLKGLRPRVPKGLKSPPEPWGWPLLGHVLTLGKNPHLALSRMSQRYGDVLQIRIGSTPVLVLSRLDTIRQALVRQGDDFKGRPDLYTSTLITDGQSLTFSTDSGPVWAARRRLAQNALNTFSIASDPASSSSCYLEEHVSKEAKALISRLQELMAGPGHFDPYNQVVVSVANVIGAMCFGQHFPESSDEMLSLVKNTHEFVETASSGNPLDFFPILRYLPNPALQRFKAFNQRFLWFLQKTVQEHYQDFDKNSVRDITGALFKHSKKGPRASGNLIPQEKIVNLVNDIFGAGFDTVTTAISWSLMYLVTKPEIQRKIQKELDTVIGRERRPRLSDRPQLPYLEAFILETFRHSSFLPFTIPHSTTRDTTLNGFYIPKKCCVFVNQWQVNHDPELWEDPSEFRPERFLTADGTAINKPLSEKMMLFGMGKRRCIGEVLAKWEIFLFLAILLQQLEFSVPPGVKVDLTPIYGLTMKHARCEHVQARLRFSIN

2C9 = 2C9 (Homo sapiens, UniProt P11712); test: inhibition of human liver cytochrome P450 2C9; assay type: in vitro ADME; settings: human liver cytochrome P450 isoenzyme
2C9, sequence (P11712 whole entry): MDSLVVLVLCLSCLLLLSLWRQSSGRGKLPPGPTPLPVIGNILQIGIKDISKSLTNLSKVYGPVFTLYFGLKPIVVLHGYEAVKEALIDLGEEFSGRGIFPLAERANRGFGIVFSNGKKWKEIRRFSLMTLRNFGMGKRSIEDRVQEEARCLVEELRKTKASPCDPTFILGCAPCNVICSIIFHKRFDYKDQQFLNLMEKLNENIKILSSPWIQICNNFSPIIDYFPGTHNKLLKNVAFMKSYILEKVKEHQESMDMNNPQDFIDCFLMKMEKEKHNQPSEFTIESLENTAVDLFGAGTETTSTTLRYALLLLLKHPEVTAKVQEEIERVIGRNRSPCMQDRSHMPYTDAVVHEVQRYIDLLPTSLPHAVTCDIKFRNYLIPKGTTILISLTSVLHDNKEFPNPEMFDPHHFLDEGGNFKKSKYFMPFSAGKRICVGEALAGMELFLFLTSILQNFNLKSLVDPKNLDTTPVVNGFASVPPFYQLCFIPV

[9] = 4-week repeat dose toxicity in the dog; assay type: in vivo
[10] = cardiovascular and respiratory system effects in the conscious dog; assay type: in vivo; settings: up to a dose of 300 mg/kg
[11] = QT interval in cynomolgus monkeys; assay type: in vivo; settings: 100 and 1000 mg/kg, appears related to decreased heart rate from acclimation, not drug related
[12] = Example 2 multi-dose study: pharmacokinetics; assay type: in vivo, human; settings: for Tmax at 14 days: read-out: mean time to maximum plasma concentration (Tmax); for Cmax at 14 days: read-out: mean maximum plasma concentration (Cmax)
Method: A double-blind, placebo-controlled, dose rising study was performed in healthy male and female volunteers. Each dose cohort received either placebo or active treatment as an oral suspension once daily for fourteen (14) consecutive days. The dose of study drug was prepared and administered as described in Example 1 above. The doses administered in this multiple dose study were based on the safety and tolerability assessment of the doses administered in Example 1.
Based on the results of Example 1, the starting dose was 3 mg. Based on the safety and tolerability results from Example 1, the dose was scheduled to be escalated to 10, 20, 50 and 100 mg per day for 14 consecutive days. Successive dose cohorts were not treated until the previous cohort completed 14 days of treatment and the safety follow-up visit on Day 21.

[13] = both sexes, human, in vivo, oral, 3 mg once daily, Study Day 14, mean
[14] = both sexes, human, in vivo, oral, 10 mg once daily, Study Day 14, mean
[15] = both sexes, human, in vivo, oral, 20 mg once daily, Study Day 14, simulated data at steady-state

fraction unbound [3]: 0.109 to 0.128 | fraction unbound [4]: 0.08 to 0.117 | fraction unbound [5]: 0.024 to 0.03 | metabolism by liver microsomal enzymes (liver microsomal enzymes [6]): does not appear to be metabolized | metabolism by liver microsomal enzymes (liver microsomal enzymes [7]): does not appear to be metabolized | metabolism by liver microsomal enzymes (liver microsomal enzymes [8]): does not appear to be metabolized | inhibition of CYP1A2 (CYP1A2): did not inhibit | inhibition of CYP2C9 (2C9): did not inhibit | AUC(0-t) ([12]; both sexes, human, in vivo, oral, 3 mg, 3 mg once daily, Study Day 1, mean, read-out: AUC0-last): 235 ng·h/mL | Tmax ([12]; both sexes, human, in vivo, oral, 3 mg, 3 mg once daily, Study Day 1, median): 6 h | AUC(0-t) ([12]; both sexes, human, in vivo, oral, 3 mg, 3 mg once daily, Study Day 14, mean, read-out: AUC0-last): 659 ng·h/mL | Tmax ([12]; both sexes, human, in vivo, oral, 3 mg, 3 mg once daily, Study Day 14, median): 6 h | AUC(0-t) ([12]; both sexes, human, in vivo, oral, 10 mg, 10 mg once daily, Study Day 1, mean, read-out: AUC0-last): 841 ng·h/mL | Tmax ([12]; both sexes, human, in vivo, oral, 10 mg, 10 mg once daily, Study Day 1, median): 6 h | AUC(0-t) ([12]; both sexes, human, in vivo, oral, 10 mg, 10 mg once daily, Study Day 14, mean, read-out: AUC0-last): 2360 ng·h/mL | Tmax ([12]; both sexes, human, in vivo, oral, 10 mg, 10 mg once daily, Study Day 14, median): 4.5 h | AUC(0-t) ([12]; both sexes, human, in vivo, oral, 20 mg, 20 mg once daily, Study Day 1, mean, read-out: AUC0-last): 1960 ng·h/mL | Tmax ([12]; both sexes, human, in vivo, oral, 20 mg, 20 mg once daily, Study Day 1, median): 6 h | Tmax ([12]; both sexes, human, in vivo, oral, 20 mg, 20 mg once daily, Study Day 14, median, simulated data at steady-state): 6 h | AUC(0-t) ([12]; both sexes, human, in vivo, oral, 20 mg, 20 mg once daily, Study Day 14, simulated data at steady-state, read-out: AUC0-last): 3610 ng·h/mL | AUC(0-inf) [12, 13]: 804 ng·h/mL | half-life [12, 13]: 18.2 h | Cmax ([12]; both sexes, human, in vivo, oral, 3 mg once daily, Study Day 14, mean, read-out: Cmax, ss): 25.6 ng/mL | AUC(0-inf) [12, 14]: 2870 ng·h/mL | half-life [12, 14]: 18.1 h | Cmax ([12]; both sexes, human, in vivo, oral, 10 mg once daily, Study Day 14, mean, read-out: Cmax, ss): 94.1 ng/mL | AUC(0-inf) [12, 15]: 7150 ng·h/mL | half-life [12, 15]: 20.8 h | Cmax ([12]; both sexes, human, in vivo, oral, 20 mg once daily, Study Day 14, simulated data at steady-state, read-out: Cmax, ss): 205 ng/mL | half-life at 14 days ([12]; both sexes, human, in vivo, oral, multi-dose study, independent of dose): 18 to 21 h | Cmax ([12]; both sexes, human, in vivo, 3 mg once daily oral suspension, Study Day 1, mean, read-out: Cmax): 14.8 ng/mL | Cmax ([12]; both sexes, human, in vivo, 10 mg once daily oral suspension, Study Day 1, mean, read-out: Cmax): 53.2 ng/mL | Cmax ([12]; both sexes, human, in vivo, 20 mg once daily oral suspension, Study Day 1, mean, read-out: Cmax): 121 ng/mL | AUC(0-t) ([12]; both sexes, human, plasma, oral, 3 mg, 3 mg dose administered over about fourteen (14) days, human, read-out: mean AUC0-last): ~659 ng·h/mL | Tmax at 14 days ([12]; both sexes, human, plasma, oral, 3 mg, 3 mg dose administered over about fourteen (14) days, human): ~6 h | AUC(0-t) ([12]; both sexes, human, plasma, oral, 10 mg, 10 mg dose administered over about fourteen (14) days, human, read-out: mean AUC0-last): ~2360 ng·h/mL | Tmax at 14 days ([12]; both sexes, human, plasma, oral, 10 mg, 10 mg dose administered over about fourteen (14) days, human): ~4.4 h | AUC(0-t) ([12]; both sexes, human, plasma, oral, 20 mg, 20 mg dose administered over about fourteen (14) days, human, Table 3: simulated data at steady-state, read-out: mean AUC0-last): ~3610 ng·h/mL | Tmax at 14 days ([12]; both sexes, human, plasma, oral, 20 mg, 20 mg dose administered over about fourteen (14) days, human, Table 3: simulated data at steady-state): ~5.5 h | Cmax at 14 days ([12]; both sexes, plasma, oral, 3 mg dose administered over about fourteen (14) days, human): ~25 ng/mL | Cmax at 14 days ([12]; both sexes, plasma, oral, 10 mg dose administered over about fourteen (14) days, human): ~94 ng/mL | Cmax at 14 days ([12]; both sexes, plasma, oral, 20 mg dose administered over about fourteen (14) days, human, Table 3: simulated data at steady-state): ~204 ng/mL
SMILES: O=C(Nc1nc(-c2cc(Cl)cs2)c(N2CCN(C3CCCCC3)CC2)s1)c1cnc(N2CCC(C(=O)O)CC2)c(Cl)c1 [Formula I, 1-(3-chloro-5-{[4-(4-chlorothiophen-2-yl)-5-(4-cyclohexylpiperazin-1-yl)thiazol-2-yl]carbamoyl}pyridin-2-yl)piperadine-4-carboxylic acid]
differentiation of human cord blood CD34+ cells to human megakaryocytes [1]: promotes the differentiation | differentiation of human hematopoietic progenitor cells other than those of megakaryocytic lineage [2]: did not promote the differentiation | muscle lesions ([9]; any dose): No muscle lesions were observed | renal findings at the end of the recovery period ([9]; high dose animals (100, 300 mg/kg/day), all other renal lesions resolved): regeneration of renal tubular epithelial persisted in the majority of the high dose animals | microscopic changes in the cortex of the kidney ([9]; monomaleate salt, 10, 30, 100, 300 mg/kg/day for 4 weeks): epithelial cell regeneration of proximal tubules and interstitial subacute inflammation | cardiovascular or respiratory system effects [10]: No cardiovascular or respiratory system effects were observed | QT interval [11]: prolongation of QT interval was reported | dose proportionality of Cmax and AUC ([12]; following single and repeat administration, 3 mg to 20 mg): increased proportionally with respect to dose
